Among the test systems are 786-0 renal; ACHN renal; COLO 205 colon; DU-145 prostate; HCT-15 colon; HT29 colon; IGROV1 ovarian; MOLT-4 leukemia; NCI-H226 lung; NCI-H23 lung; NCI-H522 lung; NCI/ADR-RES ovarian; OVCAR-4 ovarian; OVCAR-8 ovarian; RPMI-8226 leukemia; RXF 393 renal; SR leukemia; TK-10 renal; UACC-257 melanoma.
Holding throughout (assay): NCI-60 cell line screen, 48 h

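Grown in 96-well plates, cells were treated for 48 hours with each compound at five concentrations. Insufficient inhibition: endpoint recorded as highest concentration tested. TGI denotes the concentration required for complete inhibition of growth.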

This is an account of results in PubChem BioAssay (NCI).

As to `CCCN(CCC)CCc1ccc(OC2=CCN(C)CC2)cc1`, the TGI in the test on 786-0 renal was over 100 µM; in the test with ACHN renal, over 100 µM; in the test on COLO 205 colon, over 100 µM; in the test on DU-145 prostate, over 100 µM; with HCT-15 colon, over 100 µM; with HT29 colon, 46.4 µM. Further, the TGI with IGROV1 ovarian was over 100 µM; in the test on MOLT-4 leukemia it was over 100 µM; in the test with NCI-H226 lung, over 100 µM; with NCI-H23 lung, over 100 µM; in the test with NCI-H522 lung, 67 µM; with NCI/ADR-RES ovarian, over 100 µM. Moreover, the TGI in the test on OVCAR-4 ovarian is over 100 µM; in the test on OVCAR-8 ovarian, over 100 µM; with RPMI-8226 leukemia it was over 100 µM; in the test with RXF 393 renal, over 100 µM; in the test with SR leukemia, 81.7 µM; in the test on TK-10 renal, over 100 µM. The molecule also showed a TGI in the test on UACC-257 melanoma of 43.9 µM.
As to `CC(C)=C1C(=O)C[C@]2(C)C[C@H]3O[C@]3(C)CC[C@@H]3O[C@@]3(C)CC[C@@H]12`, the TGI with 786-0 renal, in the test with ACHN renal, in the test on COLO 205 colon, with DU-145 prostate, with HCT-15 colon and in the test with HT29 colon was over 50 µM in each case. The TGI in the test with IGROV1 ovarian, with MOLT-4 leukemia, in the test on NCI-H226 lung, in the test on NCI-H23 lung, in the test with NCI-H522 lung and in the test with NCI/ADR-RES ovarian was over 50 µM each time. For the same molecule, the TGI with OVCAR-4 ovarian, in the test on OVCAR-8 ovarian, in the test with RPMI-8226 leukemia, in the test with RXF 393 renal, in the test on SR leukemia and in the test with TK-10 renal was over 50 µM each time. The molecule also registered a TGI in the test with UACC-257 melanoma of over 50 µM.
Regarding `C=Cc1nc2c(Cl)ncnc2n1Cc1ccccc1`, the TGI with 786-0 renal turned out to be 4.49 µM; with ACHN renal, 3.59 µM; in the test on COLO 205 colon it was 3.08 µM; in the test with DU-145 prostate, 7.2 µM; with HCT-15 colon it was 8.05 µM; in the test with HT29 colon it was 7.28 µM. For the same molecule, the TGI in the test with IGROV1 ovarian was 10.9 µM; in the test on MOLT-4 leukemia, over 28.4 µM; in the test on NCI-H226 lung, 17 µM; with NCI-H23 lung, 11.6 µM; in the test on NCI-H522 lung it was 3.83 µM; in the test with NCI/ADR-RES ovarian, 23.1 µM. In addition, the TGI with OVCAR-4 ovarian was 13.5 µM; in the test with OVCAR-8 ovarian, 12 µM; with RPMI-8226 leukemia it was 18.3 µM; in the test with RXF 393 renal, 7.84 µM; in the test with SR leukemia it was over 33.4 µM; with TK-10 renal it was 7.72 µM. Further, the TGI in the test with UACC-257 melanoma came out at 8.6 µM.
With `C[N+](C)(CCCn1ccnc1[N+](=O)[O-])CCCn1ccnc1[N+](=O)[O-]`, the TGI in the test on 786-0 renal, in the test with ACHN renal, in the test on COLO 205 colon, with DU-145 prostate, in the test with HCT-15 colon and in the test with HT29 colon was over 100 µM each time. For the same molecule, the TGI in the test on IGROV1 ovarian, with MOLT-4 leukemia, in the test on NCI-H226 lung, in the test with NCI-H23 lung, in the test on NCI-H522 lung and in the test with NCI/ADR-RES ovarian was over 100 µM throughout. The TGI in the test with OVCAR-4 ovarian, in the test on OVCAR-8 ovarian, in the test with RPMI-8226 leukemia, with RXF 393 renal, in the test on SR leukemia and in the test on TK-10 renal was over 100 µM throughout. Further, the TGI in the test on UACC-257 melanoma was over 100 µM.
Take `Cc1ccc(N=N/C(=N/NC(=O)c2cc(Cl)ccc2O)c2ccc(N(CCC#N)CCC#N)cc2C)cc1`: the TGI is over 100 µM in the test on 786-0 renal; 70.4 µM with ACHN renal; 44.2 µM with COLO 205 colon; over 100 µM in the test on DU-145 prostate; over 100 µM with HCT-15 colon; 60.6 µM in the test on HT29 colon. Also, the TGI in the test with IGROV1 ovarian is over 100 µM; in the test with MOLT-4 leukemia it was over 100 µM; in the test with NCI-H226 lung, 63.7 µM; in the test with NCI-H23 lung, 55.9 µM; in the test on NCI-H522 lung, 31.4 µM; with NCI/ADR-RES ovarian it was over 100 µM. Moreover, the TGI in the test on OVCAR-4 ovarian was 97.7 µM; with OVCAR-8 ovarian it was 54.7 µM; in the test on RPMI-8226 leukemia, over 100 µM; in the test with RXF 393 renal it was over 100 µM; in the test with SR leukemia, over 100 µM; with TK-10 renal it was 87.2 µM. Besides, the TGI in the test on UACC-257 melanoma was 47.2 µM.
Take `COc1ccc(N2CN3OC(=O)N(c4ccc(OC)cc4)[C@@]3(c3ccccc3)C2)cc1`: the TGI is over 100 µM in the test on 786-0 renal; over 100 µM with ACHN renal; 80.1 µM with COLO 205 colon; over 100 µM with DU-145 prostate; over 100 µM with HCT-15 colon; 50.6 µM in the test with HT29 colon. The TGI in the test with IGROV1 ovarian is over 100 µM; in the test with MOLT-4 leukemia it was over 100 µM; with NCI-H226 lung, over 100 µM; in the test with NCI-H23 lung, over 100 µM; in the test on NCI-H522 lung it was over 100 µM; with NCI/ADR-RES ovarian it was 32 µM. Also, the TGI is over 100 µM in the test with OVCAR-4 ovarian; over 100 µM in the test with OVCAR-8 ovarian; over 100 µM in the test with RPMI-8226 leukemia; 74.6 µM in the test on RXF 393 renal; 66.2 µM in the test on SR leukemia; over 100 µM with TK-10 renal. The molecule further gave a TGI with UACC-257 melanoma of over 100 µM.
As to `O=C(OCc1ccccc1)N(CCCCN(CCCNC(=O)C(F)(F)F)C(=O)OCc1ccccc1)CCCNC(=O)C(F)(F)F`, the TGI with 786-0 renal, in the test on ACHN renal, in the test with COLO 205 colon, in the test on DU-145 prostate, in the test with HCT-15 colon and with HT29 colon was over 100 µM in each case. The TGI in the test with IGROV1 ovarian, in the test with MOLT-4 leukemia, in the test with NCI-H226 lung, with NCI-H23 lung, with NCI-H522 lung and in the test on NCI/ADR-RES ovarian was over 100 µM each time. For the same molecule, the TGI in the test on OVCAR-4 ovarian, in the test on OVCAR-8 ovarian, in the test on RPMI-8226 leukemia, in the test on RXF 393 renal, in the test with SR leukemia and with TK-10 renal was over 100 µM each time. In the test on UACC-257 melanoma, this molecule showed a TGI of over 100 µM.
